The values below come from patent publication US20140186329A1, “POLYPHENOL ANALOGS TO TREAT ISCHEMIA” (priority 2011, published 2014).

As usually defined, the EC50 is the concentration giving half of the maximal effect. High values mean lower potency in that assay, low ones higher potency in that assay.

For one assay, the system named is PC12 cells. Put plainly: Glucose starvation. It is filed as cell-based. Conditions: MTT 24 hr. On the procedure:
(§1) FIG. 5 illustrates pharmacological effects of Baicalein on cultured cells. (A) Trophic factor withdrawal. Primary cortical neurons are prepared from 18-day-old rat embryos, and cultured at low cell density 1×10^6/35 mm dish, in serum containing medium with Baicalein (10-10,000 nM), and viability assayed 2 days later using a live-dead assay. (B) Excitotoxicity assay was done with E14 mouse primary cortical neuron cultures. After 11 days of culture, cells were exposed to 10 μM glutamate for 10 min, followed by the addition of varying concentrations of Baicalein (0.2-5 μM). Cell viability was determined 24 hr later with a standard MTT assay. (C) PC12 cells were glucose-deprived then were incubates in the absence or presence of Baicalein. Cell viability was determined 24 hr later using the MTT assay. (D) RCG-5 nerve cells were treated with 30 μM iodoacetic acid for 2 hr in the presence or absence of 5-25 μM Baicalein. In some experiments, Baicalein was added 2 hr after the ischemic event. Cell survival (%) was measured after 24 hr by the MTT assay. Baicalein added before (□) or 2 hr after ([…]) ischemia. […] When these cells are starved for glucose, there is approximately 70% maximal survival in the presence of NGF. Baicalein promotes over 80% survival (FIG. 5C).

A further assay relates to RCG-5 nerve cells. The assay can be described thus: Chemical ischemia model (IAA) in RCG-5 nerve cells. It is filed as cell-based. Particulars: 30 μM IAA 2 hr, 5-25 μM, also added 2 hrs after insult. On the procedure: as §1
Assay [1] is described as follows: cell based assays (not specified).

On to `O=c1cc(-c2ccccc2)oc2cc(O)c(O)c(O)c12` [Baicalein, 5,6,7-trihydroxyflavone, reference compound], for which the “survival of glucose-starved cells” value in the assay with PC12 cells was “over 80%”. Further, in the assay with RCG-5 nerve cells, the “prevention of cell death in chemical ischemia model” value was “prevents cell death”. `O=c1c(O)c(-c2ccc(O)c(O)c2)oc2cc(O)ccc12` [Fisetin, 3,7,3′,4′-Tetrahydroxyflavone, reference compound]: the EC50 in assay [1] is 2 to 5 µM.
